Data reported in US9937115B2, “Oral care compositions with improved flavor” (priority 2010, dated 2018).
Where a name gives a salt, the structure may show the parent alone. Read-outs that look alike come from different tables or passages of the source.

Target: T1, TRPA1 receptor (Homo sapiens, UniProt O75762)
T1 construct: expressed in transfected cells; host or cells: HEK cell line
Test: cell-based
Set-up: activation: dose or concentration left out as unconfirmed
Procedure: The term “TRPA1 activator” as used herein refers to any component which at a concentration of 1 mM gives a calcium flux count of at least 1000 counts above the background level of calcium present in the cell according to the FLIPR method as discussed herein. The term “count” is defined as the change in fluorescence of the transfected cell lines due to the influx of calcium across the cell membrane, which reacts with the calcium sensitive dye present within the cells.
In order to select TRPA1 agonists that would be preferred for reducing off-tasting chemical components found in oral care compositions, calcium flux receptor activity on the TRPA1 was utilized as the criteria for selection of actives. With allyl isothiocyanate as the TRPA1 positive control, molecules that directly activated the TRPA1 receptor were screened in dimethylsulfoxide (DMSO). Pure molecules of each material were dissolved in DMSO at a concentration of 100 micormolar and then added to an HEK cell line containing the TRPA1 receptor. If they are TRPA1 agonists, they will cause a calcium flux in the cell which fluoresces and may then be measured using a FLIPR machine.

[1] = HEK293, percentage of the control (allyl isothiocyanate) calcium count, material dissolved in DMSO at 100 micromolar, HEK cells with TRPA1, direct addition, read-out: TRPA1 Direct addition
[2] = HEK293, percentage of the control (allyl isothiocyanate) calcium count, material dissolved in DMSO at 100 micromolar, HEK cells with TRPA1, pre-incubation, read-out: TRPA1 Pre-incubation
[3] = HEK293, read-out: TRPA1 Direct addition
[4] = HEK293, read-out: TRPA1 Pre-incubation
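Wherever TRPA1 Pre-incubation is given: values above 100 mean more active than the control.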

T1 sequence (O75762 whole entry): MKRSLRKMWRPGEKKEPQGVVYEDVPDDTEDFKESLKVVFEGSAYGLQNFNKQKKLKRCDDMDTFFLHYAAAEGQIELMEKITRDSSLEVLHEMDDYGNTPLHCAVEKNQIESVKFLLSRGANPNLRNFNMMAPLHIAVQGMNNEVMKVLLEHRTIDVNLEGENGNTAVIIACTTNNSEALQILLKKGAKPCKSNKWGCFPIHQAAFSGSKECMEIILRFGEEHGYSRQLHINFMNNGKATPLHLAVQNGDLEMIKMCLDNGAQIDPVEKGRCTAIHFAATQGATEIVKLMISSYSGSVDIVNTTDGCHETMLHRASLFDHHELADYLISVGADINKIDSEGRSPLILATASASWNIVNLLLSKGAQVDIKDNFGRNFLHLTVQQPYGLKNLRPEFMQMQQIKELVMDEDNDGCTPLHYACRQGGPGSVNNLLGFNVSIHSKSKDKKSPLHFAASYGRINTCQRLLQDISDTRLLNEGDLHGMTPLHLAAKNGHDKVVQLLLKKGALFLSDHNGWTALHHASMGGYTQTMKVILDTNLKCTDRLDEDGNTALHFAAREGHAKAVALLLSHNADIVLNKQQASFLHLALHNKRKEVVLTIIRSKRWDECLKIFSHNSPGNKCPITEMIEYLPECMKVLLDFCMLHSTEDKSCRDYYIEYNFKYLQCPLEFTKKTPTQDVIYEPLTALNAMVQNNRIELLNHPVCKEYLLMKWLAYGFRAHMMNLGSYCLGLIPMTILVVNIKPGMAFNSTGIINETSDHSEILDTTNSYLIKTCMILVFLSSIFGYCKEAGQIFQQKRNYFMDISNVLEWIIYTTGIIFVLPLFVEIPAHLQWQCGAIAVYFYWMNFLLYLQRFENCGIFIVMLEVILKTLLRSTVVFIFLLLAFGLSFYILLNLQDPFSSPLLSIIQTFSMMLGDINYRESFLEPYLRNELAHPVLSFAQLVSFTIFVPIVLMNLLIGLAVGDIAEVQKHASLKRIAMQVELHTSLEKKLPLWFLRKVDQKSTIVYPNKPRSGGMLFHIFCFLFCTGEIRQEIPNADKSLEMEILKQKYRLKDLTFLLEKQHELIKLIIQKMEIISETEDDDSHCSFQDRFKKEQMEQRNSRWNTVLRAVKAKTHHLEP

| Structure (SMILES) | activation at 100 µM [1] [%] | activation [2] [%] | further results |
| --- | --- | --- | --- |
| CC(=O)OC1CC2CCC1(C)C2(C)C (stereo not shown) [Bornyl Acetate] | -0.6 | 51.2 | – |
| CC(C)CC(=O)OC1CC2CCC1(C)C2(C)C (stereo not shown) [Bornyl Isovalerate] | -1.36 | 72.5 | – |
| CCCCOC(=O)CCC [Butyl Butyrate] | -0.66 | 62.3 | – |
| CCCCOC(=O)[C@H](C)O [Butyl L-Lactate] | -0.66 | – | activation at 100 µM [2]: 67.3% |
| CCCCOC(=O)CC [Butyl Propionate] | -0.32 | 53.4 | – |
| CCCC=O [Butyraldehyde] | 28.9 | 66.2 | – |
| C=C1C2CCC(C2)C1(C)C (stereo not shown) [Camphene] | -1.43 | 96.5 | – |
| O=CC=Cc1ccccc1 [Cinnamaldehyde] | 114 | -1.2 | – |
| OC/C=C/c1ccccc1 [Cinnamic Alcohol] | -1.45 | 84 | – |
| CC(=O)OCC=Cc1ccccc1 [Cinnamyl Acetate] | -0.13 | 70.1 | – |
| CC(C)CC(=O)OCC=Cc1ccccc1 [Cinnamyl Isovalerate] | -0.43 | 49.7 | – |
| COC(C=C(C)CCC=C(C)C)OC [Citral Dimethyl Acetal] | 0.16 | 78 | – |
| CC(C)=CCCC(C)CCOC=O (stereo not shown) [Citronellyl Formate] | -0.57 | 89.5 | – |
| CC(C)=CCCC(C)CCOCC=O (stereo not shown) [Citronellyl Oxyacetaldehyde] | 148 | -1.16 | – |
| CC(C)c1ccc(C=O)cc1 [Cuminaldehyde] | 25.6 | 72.9 | – |
| CC(=O)OC1CCCCC1 [Cyclohexyl Acetate] | -1.27 | 68.8 | – |
| CCOC(=O)C(C)CC (stereo not shown) [Ethyl 2-Methylbutyrate] | 0.26 | 82 | – |
| CCOC(=O)c1ccccc1 [Ethyl Benzoate] | -0.07 | 60.3 | – |
| CCCC(=O)OCC [Ethyl Butyrate] | -0.32 | 87 | – |
| CCCCCCC(=O)OCC [Ethyl Heptanoate] | 0.23 | 79 | – |
| CCCCCC(=O)OCC [Ethyl Hexanoate] | 0.41 | 92.3 | – |
| CCOC(=O)CC(C)C [Ethyl Isovalerate] | -0.05 | 62.8 | – |
| CCOC(=O)C(C)O (stereo not shown) [Ethyl Lactate] | -0.14 | 67.4 | – |
| CCCCCCCCCCCC(=O)OCC [Ethyl Laurate] | 0.12 | 75.8 | – |
| CCCCCCCC(=O)OCC [Ethyl Octanoate] | -0.14 | 87.3 | – |
| CCOC(=O)Cc1ccccc1 [Ethyl Phenylacetate] | – | – | activation [3]: -0.28%; activation [4]: 76.2% |
| CCOC(=O)c1ccccc1O [Ethyl Salicylate] | -0.53 | 106 | – |

| Structure (SMILES) | activation at 100 µM [1] [%] | activation [2] [%] | further results |
| --- | --- | --- | --- |
| CCCCC(=O)OCC [Ethyl Valerate] | -0.08 | 101 | – |
| O=C1CCCCCCCCCCCC(=O)OCCO1 [Ethylene Brassylate] | -0.58 | 37.2 | – |
| C=CCc1ccc(OC(=O)c2ccccc2)c(OC)c1 [Eugenol benzoate] | 22.9 | 57.3 | – |
| CC(C)=CCCC(C)=CCCC(C)=CCO [Farnesol] | 0.1 | 56.6 | – |
| O=Cc1ccco1 [Furfural] | -0.15 | 69 | – |
| CC1=CCC(C(C)C)=CC1 [Gamma-Terpinene] | 0.21 | 61.5 | – |
| CC(C)=CCC/C(C)=C/CO [Geraniol] | 5.19 | 113 | – |
| CC(=O)OC/C=C(\C)CCC=C(C)C [Geranyl Acetate] | 0.33 | 63.2 | – |
| CCCC(=O)OC/C=C(\C)CCC=C(C)C [Geranyl Butyrate] | 0.12 | 61.5 | – |
| CCC(=O)OC/C=C(\C)CCC=C(C)C [Geranyl Propionate] | 0.09 | 47.9 | – |
| COc1ccccc1O [Guaiacol] | -0.08 | 87.7 | – |
| CCCCCCCO [Heptyl Alcohol] | 0.59 | 70.7 | – |
| CCCCCC(=O)O [Hexanoic Acid] | -0.4 | 67.2 | – |
| CCCCCCOC(C)=O [Hexyl Acetate] | -0.01 | 49.1 | – |
| CCCCCCO [Hexyl Alcohol] | -0.22 | 66.2 | – |
| CCCCCCOC(=O)CCCCC [Hexyl Hexanoate] | 0.07 | 67.4 | – |
| CCCCCCOC(=O)CC [Hexyl Propionate] | -15.9 | 78.9 | – |
| CCCCCCOC(=O)C(C)CC (stereo not shown) [Hexyl-2-Methylbutyrate] | -0.38 | 67.1 | – |
| CC(=O)OCCC(C)C [Isoamyl Acetate] | 0.07 | 41 | – |
| CC(C)CCO [Isoamyl Alcohol] | – | – | activation [3]: -0.15%; activation [4]: 70.9% |
| CC(C)CCOC(=O)CC(C)C [Isoamyl Isovalerate] | 0.18 | 59.6 | – |
| CC(=O)OCC(C)C [Isobutyl Acetate] | -0.23 | 95.7 | – |
| CCCCCC(=O)OCC(C)C [Isobutyl Hexanoate] | -17.1 | 53.1 | – |
| CC/C=C\CC1=C(C)CCC1=O [Jasmone] | 46.5 | 51.6 | – |
| CCCCCCCCCCCC(=O)O [Lauric Acid] | -2.82 | 96 | – |
| CCCCCCCCCCCCO [Lauryl Alcohol] | -0.86 | 50.5 | – |
| C=CC(C)(O)CCC=C(C)C (stereo not shown) [Linalool] | -1.58 | 44.8 | – |

| Structure (SMILES) | activation at 100 µM [1] [%] | activation [2] [%] | further results |
| --- | --- | --- | --- |
| C=CC(C)(CCC=C(C)C)OC(C)=O (stereo not shown) [Linalyl Acetate] | -0.9 | 77.2 | – |
| COc1cccc(OC)c1 [M-Dimethoxybenzene] | -0.59 | 80.6 | – |
| CC(O)C(=O)[O-].CC(O)C(=O)[O-].[Mg+2] (stereo not shown) [Magnesium Lactate] | – | – | TRPA1 Direct addition: −4.49%; TRPA1 Pre-incubation: 58.12% |
| Cc1occc(=O)c1O [Maltol] | -2.79 | 102 | – |
| CCCCCCCCCCO [Material 1-Decanol, 1-Decanol] | -1.41 | 59.8 | – |
| CCCCCCCC(C)=O [Material 2-Nonanone, 2-Nonanone] | 0.36 | 77.2 | – |
| CCCCCCC(C)O (stereo not shown) [Material 2-Octanol, 2-Octanol] | -14.1 | 55.3 | – |
| CCCCCCC(C)=O [Material 2-Octanone, 2-Octanone] | -17.1 | 93.3 | – |
| CCCC(C)=O [Material 2-Pentanone, 2-Pentanone] | 0.73 | 90.1 | – |
| CCCCCCCCCC(C)=O [Material 2-Undecanone, 2-Undecanone] | 10.7 | 65.9 | – |
| CCCCC(O)CC (stereo not shown) [Material 3-Heptanol, 3-Heptanol] | -1.06 | 81.3 | – |
| CC(=O)OC1CC(C)CCC1C(C)C (stereo not shown) [Menthyl Acetate] | -7.24 | 75.8 | – |
| COC(=O)c1ccccc1N [Methyl Anthranilate] | 69.6 | 1.27 | – |
| COC(=O)/C=C/c1ccccc1 [Methyl trans-Cinnamate] | -16.8 | 69.4 | – |
| CCCCCCCCC=O [Nonanal] | -14 | 51.4 | – |
| CCCCCCCC=O [Octanal] | -11 | 87.9 | – |
| O=C(OCCc1ccccc1)c1ccccc1O [Phenethyl salicylate] | 7.36 | 110 | – |
| CC(C)C(=O)OCCOc1ccccc1 [Phenoxyethyl Isobutyrate] | -7.84 | 36.8 | – |
| OCCc1ccccc1 [Phenyl Ethyl Alcohol] | -4.77 | 55 | – |
| COC(Cc1ccccc1)OC [Phenylacetaldehyde Dimethyl Acetal] | -14.8 | 81.4 | – |
| CC(=O)OCCc1ccccc1 [Phenylethyl Acetate] | -22.5 | 93.8 | – |
| CC(C)C(=O)OCCc1ccccc1 [Phenylethyl Isobutyrate] | -3.56 | 63.9 | – |
| CC(=O)OCc1ccc2c(c1)OCO2 [Piperonyl Acetate] | – | – | activation at 100 µM [3]: -0.28%; activation at 100 µM [4]: 102% |
| CCCCCC=CC=CC(=O)OCCC [Propyl 2,4-Decadienoate] | -15.7 | 105 | – |
| O=C1NS(=O)(=O)c2ccccc21.[Na] [Saccharin Sodium] | – | – | activation [3]: -12.4%; activation [4]: 62.5% |
| O=Cc1ccccc1O [Salicylaldehyde] | 0.01 | 62.5 | – |
